Test results taken from patent US20060083657A1, “Indicator device having an active agent encapsulated in an electrospun nanofiber” (STERIS Inc., priority 2004, published 2006).

Assays:
[1] = test system: Escherichia coli ATCC 25922; experiment: Disk diffusion method, zone of inhibition on lawn plates; format: cell-based; conditions: polymer mat disk, 37° C., 7 days
Procedure: (§1) The effectiveness of the CHG polymer mat was investigated using a disk diffusion method on Staphylococcus aureus ATCC 6538 and Escherichia coli ATCC 25922 lawn plates. The plates were prepared for each organism by dispensing and spreading 0.1 mL of the bacterium over the entire surface of prepared tryptic soy agar plates to create a “lawn.” Concentrations of chlorhexidine gluconate (CHG) at 0.25%, 0.5%, and 1.0% were electrospun with Tecoflex to produce an antimicrobial polymer mat. The polymer mats were cut into two 0.5-1.0 inch diameter disks for each CHG concentration. One disk per plate was placed into the center of the bacterial plate The plates were then incubated at 37° C. for 7 days to determine the zone of inhibition or antimicrobial coverage around the disk (measured in millimeters diameter), which simulates the persistence of an antimicrobial dressing to inactivate resident microorganisms on the skin. For S. aureus, 0.25%, 0.50%, and 1.0% CHG was effective showing mean zones of 20 mm, 25 mm, and 25 mm zones, respectively at 7 days, while at the same concentrations E. coli mean zones were 11 mm, 23 mm, and 28 mm.

[2] = test system: Staphylococcus aureus ATCC 6538; experiment: as above; format: cell-based; conditions: polymer mat disk, 37° C., 7 days
Procedure: as §1

[3] = 0.25% CHG electrospun with Tecoflex
[4] = 0.50% CHG electrospun with Tecoflex
[5] = 1.0% CHG electrospun with Tecoflex

SMILES: N=C(NCCCCCCNC(=N)NC(=N)Nc1ccc(Cl)cc1)NC(=N)Nc1ccc(Cl)cc1.O=C(O)[C@H](O)[C@@H](O)[C@H](O)[C@H](O)CO.O=C(O)[C@H](O)[C@@H](O)[C@H](O)[C@H](O)CO [CHG, Chlorhexidine Gluconate]
- mean zone of inhibition (diameter) [1, 3]: 11 mm
- mean zone of inhibition (diameter) [1, 4]: 23 mm
- mean zone of inhibition (diameter) [1, 5]: 28 mm
- mean zone of inhibition (diameter) [2, 3]: 20 mm
- mean zone of inhibition (diameter) [2, 4]: 25 mm
- mean zone of inhibition (diameter) [2, 5]: 25 mm
